Results published in patent US8658605B2, “Bioactivity composition of Reevesia formosana” (priority 2011, dated 2014).

Tests used:
[1] = tested on: MCF-7 (human breast adenocarcinoma); assay: MTS reduction assay, cytotoxicity on MCF-7 cells; format: cell-based; conditions: average of three repeats
Procedure: (§1) MCF-7 (human breast adenocarcinoma), NCI-H460 (non-small-cell lung cancer) and HepG2 (liver hepatocellular cells) were incubated in a modified Dulbecco's Eagle's medium with 10% FBS and nonessential amino acid ([…], Inc) in an incubator with 37° C., 5% CO2/Air. Human cancer cell lines were planted in 96-well plates, and each well which contained the 100 μl medium were planted one of MCF-7 and NCI-H460 with a cell amount of 6500, 2500 and 7500. After overnight incubation, each cell line was administered at least 8 testing compounds with different concentrations individually, and subsequently the cell lines were incubated in the incubator for 72 hours. According to a method of MTS reduction assay, 5-(3-carboxymethoxyphenyl)-2-(4,5-dimethylthiazoyl)-3-(4-sulfophenyl)tetrazolium salt (MTS) was applied on estimating alive cell numbers, and 0.1% DMSO (Promega, Madison, Wis., USA) was a control group because DMSO controlled a result of percentage, the result could be a dose-response curve of IC50 value. […] The IC50 value was an average of three times repeats. The 10000/well HepG2 cells were planted on a 96-well plate and were gone through the same experiences.

[2] = tested on: NCI-H460 (non-small-cell lung cancer); assay: MTS reduction assay, cytotoxicity on NCI-H460 cells; format: cell-based, human; conditions: NCI-H460, 72 hours, average of three repeats
Procedure: as §1

[3] = tested on: HepG2 (liver hepatocellular cells); assay: MTS reduction assay, cytotoxicity on HepG2 cells; format: cell-based, human; conditions: HepG2, 72 hours, average of three repeats
Procedure: as §1

Compound | IC50 ([1]; MCF-7, 72 hours) | IC50 [2] | IC50 [3] | IC50 ([1]; Homo sapiens, MCF7, MCF-7, 72 hours) | IC50 ([2]; Homo sapiens) | IC50 ([3]; Homo sapiens)
COC1C(OC2CCC3(C=O)C4CCC5(C)C(C6=CC(=O)OC6)CCC5(O)C4CCC3(O)C2)OC(C)C(O)C1O (stereo not drawn) [epi-reevesioside F (7), epi-reevesioside F] | 0.0341 ± 0.0055 µM | 0.0104 ± 0.0005 µM | 0.996 ± 0.0926 µM | – | – | –
C[C@@H]1C[C@H]2OCO[C@H]2[C@H](O[C@H]2CC[C@]3(C=O)[C@H]4CC[C@]5(C)[C@@H](C6=CC(=O)OC6)CC[C@]5(O)[C@@H]4CC[C@]3(O)C2)O1 [reevesioside A (1), reevesioside A] | 0.0632 ± 0.0021 µM | 0.0193 ± 0.0005 µM | 0.368 ± 0.0299 µM | – | – | –
COc1cc2c3c(c4cc(OC)c(OC)cc4c2cc1OC)CN1CCC[C@@H]1C3 [tylophorine, reference compound] | – | – | – | 0.236 ± 0.011 µM | 0.233 ± 0.024 µM | 0.215 ± 0.014 µM
reevesioside B [reevesioside B (2)] | 3.52 ± 0.072 µM | 0.431 ± 0.0451 µM | 4.76 ± 0.203 µM | – | – | –
reevesioside C [reevesioside C (3)] | 2.04 ± 0.173 µM | 0.208 ± 0.0156 µM | 3.74 ± 0.261 µM | – | – | –
reevesioside D [reevesioside D (4)] | 36.4 ± 2.58 µM | 3.9 ± 0.316 µM | > 500 µM | – | – | –
reevesioside E [reevesioside E (5)] | 11.8 ± 2.24 µM | 1.77 ± 0.0354 µM | 40.5 ± 6.43 µM | – | – | –
reevesioside F [reevesioside F (6)] | 0.072 ± 0.0081 µM | 0.0203 ± 0.0004 µM | 0.836 ± 0.0332 µM | – | – | –
